Data reported in article PMC7901654, “Bioisosteric Discovery of NPA101.3, a Second-Generation RET/VEGFR2 Inhibitor Optimized for Single-Agent Polypharmacology” (Journal of Medicinal Chemistry, 2020).

Assays:
RET/C634R = molecular target: T1, RET/C634R (Homo sapiens, UniProt P07949, C634R); test: RET autophosphorylation (Y905, Y1062) Western blot in transfected fibroblasts (RAT1); type: cell-based; settings: 2 h
T1 construct: expressed in transfected cells; host or cells: RAT1 fibroblasts (gift of M. Billaud)
T1 sequence (P07949 29-1072 isoform P07949-2 C634R limits assumed): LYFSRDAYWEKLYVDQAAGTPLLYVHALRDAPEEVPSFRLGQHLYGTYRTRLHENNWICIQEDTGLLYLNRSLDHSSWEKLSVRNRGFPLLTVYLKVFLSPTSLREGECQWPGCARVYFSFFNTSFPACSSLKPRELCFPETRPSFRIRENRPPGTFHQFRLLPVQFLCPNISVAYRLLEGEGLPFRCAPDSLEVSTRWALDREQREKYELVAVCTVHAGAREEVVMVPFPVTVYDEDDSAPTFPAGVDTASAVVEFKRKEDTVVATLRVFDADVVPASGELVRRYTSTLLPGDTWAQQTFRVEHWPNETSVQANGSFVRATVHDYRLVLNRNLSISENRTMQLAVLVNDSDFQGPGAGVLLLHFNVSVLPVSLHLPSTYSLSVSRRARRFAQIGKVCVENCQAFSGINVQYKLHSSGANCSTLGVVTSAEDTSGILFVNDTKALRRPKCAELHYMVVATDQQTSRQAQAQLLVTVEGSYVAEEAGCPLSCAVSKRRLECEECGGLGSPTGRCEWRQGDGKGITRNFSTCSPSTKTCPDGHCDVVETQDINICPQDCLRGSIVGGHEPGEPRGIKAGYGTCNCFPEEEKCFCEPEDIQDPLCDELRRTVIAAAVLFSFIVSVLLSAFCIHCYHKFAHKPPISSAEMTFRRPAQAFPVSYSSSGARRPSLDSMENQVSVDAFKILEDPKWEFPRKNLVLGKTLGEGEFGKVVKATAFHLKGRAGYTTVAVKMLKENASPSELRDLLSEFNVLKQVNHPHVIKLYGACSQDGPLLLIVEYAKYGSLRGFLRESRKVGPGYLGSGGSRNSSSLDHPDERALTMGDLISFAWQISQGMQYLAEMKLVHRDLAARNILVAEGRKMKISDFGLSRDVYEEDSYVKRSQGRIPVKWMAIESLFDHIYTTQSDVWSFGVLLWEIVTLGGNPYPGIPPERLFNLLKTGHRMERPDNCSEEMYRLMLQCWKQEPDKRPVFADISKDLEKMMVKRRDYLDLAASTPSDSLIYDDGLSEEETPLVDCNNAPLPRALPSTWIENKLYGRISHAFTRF
Description: Fibroblasts transfected with RET/C634R were treated with increasing doses of NPA101.3, ranging from 0.1 to 10.0 nM. RET autophosphorylation was assessed by Western blotting using two different antibodies that can recognize phosphorylated Y905, located in the RET kinase activation loop, or Y1062, a multidocking site involved in RET downstream signaling.[41]
Figure 4 NPA101.3-mediated inhibition of phosphorylation and signaling of oncogenic RET mutants and VEGFR2 in intact cells. Serum-starved RAT1 cells exogenously expressing the (A and B) indicated RET point mutants or (C) NIH3T3 cells exogenously expressing the indicated RET rearranged mutants were treated for 2 h with the indicated concentrations of the compound. Total cell lysates (50 μg) were subjected to immunoblotting with anti-phospho-Y1062 (αp1062) and anti-phospho-Y905 (αp905) RET antibodies. The blots were normalized using the anti-RET (αRET) antibody. (D) HEK293 cells were transiently transfected with human VEGFR2; 36 h after transfection, cells were serum starved for 12 h. The indicated doses of the compound or vehicle (NT) were added for 2 h, and then VEGFA (100 ng/mL) stimulation was applied for 15 min. […]
Protein lysates were prepared according to standard procedures. […] Immune complexes were detected with the enhanced chemiluminescence kit (Amersham Pharmacia Biotech, Little Chalfont, U.K.). […]

NIH3T3 RET/C634Y tumors = type: in vivo
Description: In vivo target (RET and VEGFR2) inhibition was studied by treating animals grafted with NIH3T3 RET/C634Y cells at different doses (0.3, 1, or 3 mg/kg/day p.o.) of NPA101.3 for 2 days and then performing Western blot analysis on protein extracts. […] Then, to determine antitumorigenic activity and to better distinguish RET- and VEGFR2-mediated effects, we tested NPA101.3 in nude mice transplanted with NIH3T3 cells transformed by either RET/C634Y or HRAS/G12V. Before tumors appeared, animals were treated daily with NPA101.3 (1.0, 3.0, or 10.0 mg/kg/day) or left untreated. […] Still, VEGFR2 inhibition was detected also in RAS-driven tumors, an effect that might explain the, albeit reduced, effect of the drug on their growth (Figure S13). Importantly, as predicted, no trace of NPA101.3 demethyl metabolites was detected after 1 or 4 h from oral dosing in mice (Figure S14).
Figure 6 Effects of NPA101.3 on in vivo tumor growth. NIH3T3 cells transformed by RET/C634Y or HRAS/G12V were inoculated subcutaneously into nu/nu mice. After 4 days, animals were randomly assigned to receive for the indicated time periods the compound (1.0, 3.0, or 10 mg/kg/day) (24 mice; 8 mice/group for 1, 3, and 10 mg/kg doses) or vehicle (8 mice) by oral gavage. The average size of tumors is reported ± SD.
NPA101.3 was dissolved in 80% H2O, 19.875% Tween 20, and 0.125% xanthan gum. The formulation was stored at room temperature and vortexed prior to administration. NIH3T3 RET/C634Y (200000) or NIH3T3 HRAS/G12V (50000) cells were inoculated subcutaneously into the dorsal portion (both sides) of 6-week-old female BALB/c nu/nu mice (32 mice/cell line) (Jackson Laboratories, Bar Harbor, ME). After 4 days, before tumors had appeared, animals were randomly assigned to receive NPA101.3 (1.0, 3.0, or 10 mg/kg/day) (8 mice/group) or vehicle control (8 mice) by oral gavage. Tumor diameters were measured with caliper every 2–3 days. Tumor volumes (V) were calculated by the rotational ellipsoid formula V = A × B^2/2 (A is the axial diameter, and B is the rotational diameter). […] Animals were fed ad libitum on an autoclaved diet and tap water and maintained at the Dipartimento di Medicina Molecolare e Biotecnologie Mediche Animal Facility. All manipulations were performed while the animals were under isoflurane gas anesthesia. Animal studies were conducted in accordance with Italian regulations for experimentation on animals and approved by the Italian Ministry of Health (Authorization 1023/2015-PR). To compare tumor growth, an unpaired Student’s t test (InStat program, GraphPad Software) was used. P values were statistically significant at the P < 0.05 level. […]

hERG = molecular target: T2, hERG (Homo sapiens, UniProt Q12809); test: hERG patch-clamp assay; type: cell-based
T2 construct: host or cells: HEK293, tetracycline-inducible hERG
T2 sequence (Q12809 whole entry): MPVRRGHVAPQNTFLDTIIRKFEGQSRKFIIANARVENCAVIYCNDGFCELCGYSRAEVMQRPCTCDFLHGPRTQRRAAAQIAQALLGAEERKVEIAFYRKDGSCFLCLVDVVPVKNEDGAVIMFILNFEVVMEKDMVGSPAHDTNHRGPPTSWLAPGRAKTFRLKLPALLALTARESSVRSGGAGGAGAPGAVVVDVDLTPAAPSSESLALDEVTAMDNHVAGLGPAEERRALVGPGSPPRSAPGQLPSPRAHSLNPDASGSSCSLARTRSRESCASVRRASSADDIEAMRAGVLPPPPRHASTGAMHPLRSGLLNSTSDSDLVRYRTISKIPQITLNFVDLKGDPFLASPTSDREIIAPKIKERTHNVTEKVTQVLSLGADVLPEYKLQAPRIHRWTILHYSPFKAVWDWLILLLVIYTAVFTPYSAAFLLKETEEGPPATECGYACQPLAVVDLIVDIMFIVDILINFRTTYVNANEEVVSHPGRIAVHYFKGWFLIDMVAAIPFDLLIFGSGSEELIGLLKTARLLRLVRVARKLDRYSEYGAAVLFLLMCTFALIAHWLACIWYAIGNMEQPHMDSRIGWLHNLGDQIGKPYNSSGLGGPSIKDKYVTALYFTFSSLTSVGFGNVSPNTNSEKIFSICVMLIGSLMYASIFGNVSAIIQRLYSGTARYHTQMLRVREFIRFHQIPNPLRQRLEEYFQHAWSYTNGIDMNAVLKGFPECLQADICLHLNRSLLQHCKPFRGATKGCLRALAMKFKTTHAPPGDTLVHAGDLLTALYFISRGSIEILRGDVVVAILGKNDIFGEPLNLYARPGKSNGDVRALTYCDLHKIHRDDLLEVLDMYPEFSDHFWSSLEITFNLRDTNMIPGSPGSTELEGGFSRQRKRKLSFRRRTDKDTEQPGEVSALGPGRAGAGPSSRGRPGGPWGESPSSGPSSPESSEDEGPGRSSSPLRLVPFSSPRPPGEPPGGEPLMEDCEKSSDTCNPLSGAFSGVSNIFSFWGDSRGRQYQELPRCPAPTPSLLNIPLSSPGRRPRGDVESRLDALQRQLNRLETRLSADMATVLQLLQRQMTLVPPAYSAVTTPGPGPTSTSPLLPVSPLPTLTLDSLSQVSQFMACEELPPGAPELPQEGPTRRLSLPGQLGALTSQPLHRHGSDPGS

`CC(C)(C)c1cc(NC(=O)Cc2ccc(-n3cnc4cc(-c5ccc(S(C)(=O)=O)cc5)ccc43)cc2)no1` [NPA101.3] was tested, and the “RET phosphorylation (Y905, Y1062)” value (RET/C634R; 0.3 nM) was “started to be inhibited”, the “RET phosphorylation (Y905, Y1062)” value (RET/C634R; 3.0 nM) was “almost completely blocked” and the “RET phosphorylation and signaling in NIH3T3 RET/C634Y tumors” value (NIH3T3 RET/C634Y tumors; 1.0 mg/kg, 3 h after last dose) was “strong RET phosphorylation and signaling inhibition”. For the same compound, the “tumor formation induced by RET/C634Y-transformed cells” value (NIH3T3 RET/C634Y tumors; 10 mg/kg/day oral, nu/nu mice, treatment before tumors appeared) was “completely prevented”, the “rate of growth of RET-driven tumors” value (NIH3T3 RET/C634Y tumors; lower doses (1.0, 3.0 mg/kg/day) oral) was “significantly reduced” and the “signs of wasting or toxicity in xenograft mice” value (NIH3T3 RET/C634Y tumors; mouse, in vivo) was “No mouse showed signs of wasting or other signs of toxicity”. For the same compound, the “hERG IC50 relative to RET IC50” value (hERG; hERG 7.57 μM vs RET 1 nM) was > 7000 fold, the inhibition at 0.1 µM (hERG; human, HEK293 cells expressing inducible hERG, 0.1 µM) was 0.41% and the inhibition at 1 µM (hERG; human, HEK293 cells expressing inducible hERG, 1 µM) was 14.6%. For the same compound, the inhibition at 10 µM (hERG; human, HEK293 cells expressing inducible hERG, 10 µM) was 55.9%.
